Laboratory results as given in patent publication US20250122202A1, “EGFR INHIBITOR, PREPARATION METHOD THEREFOR AND USE THEREOF” (SHANDONG NEW TIME PHARMACEUTICAL CO., LTD., priority 2021, published 2025).
Like-named read-outs stand apart in the source and are kept apart here.

What was measured:
[1] = target: EGFR-Del19/T790M/C797S kinase (Homo sapiens, UniProt P00533, C797S/T790M, form not given); test: In-vitro enzyme experiment 2 (HTRF kinase assay), EGFR Del19 T790M C797S; format: biochemical; settings: read-out: enzyme inhibition IC50 (nM) EGFR-Del19/T790M/C797S
EGFR-Del19/T790M/C797S kinase, sequence (P00533 25-1210 T790M/C797S limits assumed, form open): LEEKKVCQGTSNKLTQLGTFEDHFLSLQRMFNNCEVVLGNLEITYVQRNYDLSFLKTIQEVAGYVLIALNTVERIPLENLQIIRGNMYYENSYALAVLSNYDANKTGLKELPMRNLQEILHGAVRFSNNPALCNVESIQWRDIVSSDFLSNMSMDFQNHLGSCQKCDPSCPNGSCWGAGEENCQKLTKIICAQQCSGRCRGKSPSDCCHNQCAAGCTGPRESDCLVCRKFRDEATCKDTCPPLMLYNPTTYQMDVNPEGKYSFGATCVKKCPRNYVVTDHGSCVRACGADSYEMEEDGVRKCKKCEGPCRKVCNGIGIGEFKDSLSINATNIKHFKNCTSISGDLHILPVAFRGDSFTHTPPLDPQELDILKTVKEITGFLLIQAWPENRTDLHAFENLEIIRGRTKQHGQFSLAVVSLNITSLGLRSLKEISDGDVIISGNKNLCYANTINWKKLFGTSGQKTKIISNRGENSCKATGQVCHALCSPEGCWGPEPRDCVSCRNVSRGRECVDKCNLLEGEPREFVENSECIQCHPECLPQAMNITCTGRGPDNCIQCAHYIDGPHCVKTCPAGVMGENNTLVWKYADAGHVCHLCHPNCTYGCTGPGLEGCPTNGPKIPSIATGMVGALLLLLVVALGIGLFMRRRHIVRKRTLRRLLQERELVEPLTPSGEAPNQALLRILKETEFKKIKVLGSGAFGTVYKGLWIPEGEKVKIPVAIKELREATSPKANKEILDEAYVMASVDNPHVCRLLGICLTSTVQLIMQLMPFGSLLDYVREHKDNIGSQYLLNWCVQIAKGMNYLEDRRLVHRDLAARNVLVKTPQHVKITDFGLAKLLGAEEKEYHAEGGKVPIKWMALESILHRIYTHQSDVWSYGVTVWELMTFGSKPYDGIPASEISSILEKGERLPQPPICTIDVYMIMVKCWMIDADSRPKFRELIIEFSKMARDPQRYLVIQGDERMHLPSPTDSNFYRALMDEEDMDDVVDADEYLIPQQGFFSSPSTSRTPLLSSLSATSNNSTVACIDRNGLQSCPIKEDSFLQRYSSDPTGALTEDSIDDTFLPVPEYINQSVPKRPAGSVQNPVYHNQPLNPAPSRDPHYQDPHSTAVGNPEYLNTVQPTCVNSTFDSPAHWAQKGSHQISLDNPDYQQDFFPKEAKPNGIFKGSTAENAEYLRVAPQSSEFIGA
Description: The specific experiment was as follows: • 1. […] Test method of activity of compound • a) a compound diluent was transferred to each well of an assay plate (784075, Greiner) using Echo 550; • b) the assay plate was sealed and centrifuged at 1,000 g for 1 min; • c) 2×EGFR (D770-N771 ins NPG T790M) was prepared in a 1× kinase buffer; • d) 5 μl of the 2×EGFR (D770-N771 ins NPG T790M) was added to a 384-well assay plate (784075, Greiner); • e) the assay plate was centrifuged at 1,000 g for 30 s and incubated at room temperature for 10 min; • f) 2× TK-substrate-biotin (2 μM) and ATP were added to the 1× kinase buffer and mixed; • g) the reaction was started after adding 5 μl of the TK-substrate-biotin (2 μM) and ATP mixture; • h) the assay plate was centrifuged at 1,000 g for 30 s; and the assay plate was sealed and incubated at room temperature for 40 min; • i) 4× Sa-XL 665 was prepared in an HTRF detection buffer; • j) 5 μl of the Sa-XL 665 and 5 μl of a TK-antibody-cryptate were added to each well of the assay plate; • k) the assay plate was centrifuged at 1,000 g for 30 s and incubated at room temperature for 1 h; and • l) fluorescence signals at 615 nm (cryptate) and 665 nm (XL665) were read on an Envision 2104 reader. • 3. Data analysis • 3.1 Calculation of ratio (665/615 nm) of each well • 3.2 Calculation of inhibition rate
(§1) [formula] • 3.3 Calculation of IC50 value of compound and drawing dose-effect curve of compound • IC50 values were calculated using GraphPad 6.0 by applying a non-linear regression curve (dose-effect relationship-variable slope) of the logarithm of the compound concentration versus the inhibition rate.
The preparation of the kinase buffer, the test method of the activity of the compound, and the data analysis referred to the relevant definitions in example 117, wherein step c) of the test method of the activity of the compound was replaced by preparing 2×EGFR Del19 T790M C797S in the 1× kinase buffer.

[2] = tested on: KC-1474:PC-9 EGFR-Del19/T790M/C797S; test: Cell proliferation inhibition experiment (CCK-8), KC-1474; format: cell-based; settings: Homo sapiens, 72 h
Text: (§2) Inhibition rate %=[(A0−AS)/(A0−AC)]×100%.

[3] = tested on: KC-0178:NCI-1975 EGFR-L858R/T790M/C797S; test: Cell proliferation inhibition experiment (CCK-8), KC-0178; format: cell-based; settings: Homo sapiens, 72 h
Text: as §2

[4] = tested on: PC-9 EGFR-Del19; test: Cell proliferation inhibition experiment (CCK-8), PC-9; format: cell-based; settings: Homo sapiens, 72 h
Text: as §2

[5] = tested on: H1975 EGFR-L858R/T790M; test: Cell proliferation inhibition experiment (CCK-8), H1975; format: cell-based; settings: Homo sapiens, NCI-H1975, 72 h
Text: as §2

[6] = tested on: A549 EGFR-WT; test: Cell proliferation inhibition experiment (CCK-8), A549; settings: Homo sapiens, A549, 72 h
[7] = target: EGFR D770-N771 ins NPG kinase (Homo sapiens (Human), UniProt P00533, INS770NPG); test: In-vitro enzyme experiment 1 (HTRF kinase assay), D770-N771 ins NPG kinase; format: biochemical
EGFR D770-N771 ins NPG kinase, sequence (P00533 other isoform, or with tags, fused parts or gaps del 1-668/ins NPG behind 770 limits assumed): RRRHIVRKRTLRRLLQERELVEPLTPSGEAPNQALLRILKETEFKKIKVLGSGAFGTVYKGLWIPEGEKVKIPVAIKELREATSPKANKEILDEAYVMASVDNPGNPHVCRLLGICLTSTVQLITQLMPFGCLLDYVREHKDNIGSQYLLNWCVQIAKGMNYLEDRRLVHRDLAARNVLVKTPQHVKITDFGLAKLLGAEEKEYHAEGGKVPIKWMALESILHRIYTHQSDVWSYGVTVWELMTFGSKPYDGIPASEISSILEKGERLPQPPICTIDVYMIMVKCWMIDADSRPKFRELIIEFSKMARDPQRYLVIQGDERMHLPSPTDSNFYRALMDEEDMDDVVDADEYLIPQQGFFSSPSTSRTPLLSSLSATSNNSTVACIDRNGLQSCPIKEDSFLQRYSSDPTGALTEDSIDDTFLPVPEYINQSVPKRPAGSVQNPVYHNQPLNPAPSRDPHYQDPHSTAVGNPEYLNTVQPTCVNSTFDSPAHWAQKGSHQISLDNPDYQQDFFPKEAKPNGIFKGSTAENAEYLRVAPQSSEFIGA

[8] = tested on: KC-1362 BaF3-EGFR D770-N771 ins NPG cells; test: Anti-proliferative activity on KC-1362 BaF3-EGFR D770-N771 ins NPG cells; format: cell-based; settings: Ba/F3 EGFR
[9] = target: EGFR (D770-N771 ins NPG T790M) kinase (Homo sapiens (Human), UniProt P00533, INS770NPG/T790M); test: In-vitro enzyme experiment 1 (HTRF kinase assay), EGFR D770-N771 ins NPG T790M; format: biochemical
EGFR (D770-N771 ins NPG T790M) kinase, sequence (P00533 other isoform, or with tags, fused parts or gaps T790M/del 1-668/ins NPG behind 770 limits assumed): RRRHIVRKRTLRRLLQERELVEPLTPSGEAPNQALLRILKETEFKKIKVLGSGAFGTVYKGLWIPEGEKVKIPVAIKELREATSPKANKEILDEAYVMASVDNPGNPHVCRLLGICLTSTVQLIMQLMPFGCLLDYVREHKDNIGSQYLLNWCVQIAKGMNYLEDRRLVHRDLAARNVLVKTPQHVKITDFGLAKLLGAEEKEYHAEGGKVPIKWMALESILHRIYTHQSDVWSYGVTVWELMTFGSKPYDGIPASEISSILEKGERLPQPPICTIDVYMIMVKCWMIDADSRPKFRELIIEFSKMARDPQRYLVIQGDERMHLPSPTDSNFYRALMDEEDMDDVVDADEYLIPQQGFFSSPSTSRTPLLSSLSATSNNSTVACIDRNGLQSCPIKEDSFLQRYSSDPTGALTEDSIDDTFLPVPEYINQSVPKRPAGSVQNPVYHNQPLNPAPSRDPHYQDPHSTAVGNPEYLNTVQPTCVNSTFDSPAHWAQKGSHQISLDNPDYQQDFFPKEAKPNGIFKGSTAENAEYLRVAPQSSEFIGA
Description: The specific experiment was as follows: • 1. Preparation of 1× concentration kinase buffer • 1 volume of 5 times concentration of an enzyme buffer diluted with 4 volumes of distilled water; 5 mM magnesium chloride; 1 mM DTT; and 1 mM MnCl2. • 2. Test method of activity of compound • a) a compound diluent was transferred to each well of an assay plate (784075, Greiner) using Echo 550; • b) the assay plate was sealed and centrifuged at 1,000 g for 1 min; • c) 2×EGFR (D770-N771 ins NPG T790M) was prepared in a 1× kinase buffer; • d) 5 μl of the 2×EGFR (D770-N771 ins NPG T790M) was added to a 384-well assay plate (784075, Greiner); • e) the assay plate was centrifuged at 1,000 g for 30 s and incubated at room temperature for 10 min; • f) 2× TK-substrate-biotin (2 μM) and ATP were added to the 1× kinase buffer and mixed; • g) the reaction was started after adding 5 μl of the TK-substrate-biotin (2 μM) and ATP mixture; • h) the assay plate was centrifuged at 1,000 g for 30 s; and the assay plate was sealed and incubated at room temperature for 40 min; • i) 4× Sa-XL 665 was prepared in an HTRF detection buffer; • j) 5 μl of the Sa-XL 665 and 5 μl of a TK-antibody-cryptate were added to each well of the assay plate; • k) the assay plate was centrifuged at 1,000 g for 30 s and incubated at room temperature for 1 h; and • l) fluorescence signals at 615 nm (cryptate) and 665 nm (XL665) were read on an Envision 2104 reader. • 3. Data analysis • 3.1 Calculation of ratio (665/615 nm) of each well • 3.2 Calculation of inhibition rate
as §1
Y=lowest value+(highest value−lowest value)/(1+10^((Log IC50−X)×slope)) • X: logarithm of inhibitor concentration; and Y: inhibition rate. • 3.4 Double test report • 3.4.1 After one tester completed a report, another tester again checked the report to ensure that data analysis was correct. • 3.4.2 The data was exported from the software and manually analyzed. • 3.4.2.1 The rate was converted into the inhibition rate. All the IC50 values were first calculated with the inhibition rate using Prism GraphPad 6.0. • 3.4.2.2 Then the IC50 value was recalculated using the ratio to check the accuracy of the analysis. • 3.4.3 The number of all the compounds was ensured to be correct.

[10] = read-out: cell proliferation inhibition IC50 (μM) A549, 72 h, CCK-8
[11] = read-out: cell proliferation inhibition IC50 (μM) A549, 72 h, CCK-8, Table 5 numeric

IC50 [1] [nM] | IC50 [2] [µM] | IC50 [4] [µM] | IC50 [5] [µM] | IC50 [6, 10] [µM] | IC50 [7] [nM] | IC50 [8] [nM] | IC50 [9] [nM] | IC50 [6, 11] [µM] | SMILES | IC50 [3] [µM] | IC50 ([6]; read-out: cell proliferation inhibition IC50 (μM) A549) [µM]
10 to 100 | < 0.1 | < 0.1 | 0.1 to 1 | 0.1 to 1 | – | – | – | – | CN1CCN(c2ccc(Nc3nc(N[C@H]4CC[C@H](O)CC4)c4c(C(=O)c5ccc(F)cc5)c[nH]c4n3)cc2)CC1 [Example 56] | 1 to 2 | –
10 to 100 | – | – | – | – | 6.55 | 54 | – | – | CN1CCN(c2ccc(Nc3nc(NC45CC6CC(CC(O)(C6)C4)C5)c4c(C(=O)c5ccc(F)cc5)c[nH]c4n3)cc2)CC1 [Example 70] | – | –
< 10 | < 0.1 | < 0.1 | < 0.1 | 0.1 to 1 | 4.12 | 160 | 18.2 | – | Cn1cc(Nc2nc(N[C@H]3CC[C@@H](CO)CC3)c3c(C(=O)c4ccc(F)cc4)c[nH]c3n2)cn1 [Example 114] | 0.1 to 1 | –
10 to 100 | < 0.1 | < 0.1 | 0.1 to 1 | – | – | – | – | – | CN1CCN(c2ccc(Nc3nc(N[C@H]4CC[C@H](CO)CC4)c4c(C(=O)c5ccc(F)cc5)c[nH]c4n3)cc2F)CC1 [Example 78] | 1 to 2 | –
10 to 100 | 0.1 to 1 | < 0.1 | 0.1 to 1 | – | – | – | – | – | CN(C)CCOc1ccc(Nc2nc(N[C@H]3CC[C@@H](CO)CC3)c3c(C(=O)c4ccc(F)cc4)c[nH]c3n2)cc1 [Example 107] | 1 to 2 | –
< 10 | < 0.1 | < 0.1 | < 0.1 | – | 2.72 | 160 | 11.4 | – | CCN1CCN(c2ccc(Nc3nc(N[C@H]4CC[C@@H](CO)CC4)c4c(C(=O)c5ccc(F)cc5)c[nH]c4n3)cc2)CC1 [Example 104] | 0.1 to 1 | –
– | – | – | – | – | – | – | – | 6.53 | Cn1cc(Nc2nc(N[C@@H]3CCCN(S(=O)(=O)C4CC4)C3)c3c(C(=O)c4ccc(F)cc4)c[nH]c3n2)cn1 [Example 4] | – | –
– | – | – | – | – | – | – | – | 0.76 | CC(C)N1CCC(Nc2nc(Nc3ccc(N4CCOCC4)cc3)nc3[nH]cc(C(=O)c4ccc(F)cc4)c23)CC1 [Example 99] | – | –
10 to 100 | – | – | – | – | 28.2 | 150 | – | – | CN1CCN(c2ccc(Nc3nc(NC4CC5(COC5)C4)c4c(C(=O)c5ccc(F)cc5)c[nH]c4n3)cc2)CC1 [Example 18] | – | –
– | – | – | – | – | 3.52 | 150 | 6.31 | 0.52 | C=CC(=O)N1CC[C@@H](Nc2nc(Nc3ccc(N4CCN(C)CC4)cc3)nc3[nH]cc(C(=O)c4ccc(F)cc4)c23)C1 [Example 26] | – | –
10 to 100 | – | – | – | – | 4.54 | 70 | 9.27 | – | CN1CCN(c2ccc(Nc3nc(NC45CC6CC(C4)C(O)C(C6)C5)c4c(C(=O)c5ccc(F)cc5)c[nH]c4n3)cc2)CC1 (stereo not shown) [Example 71] | – | –

SMILES | IC50 [1] [nM] | IC50 [2] [µM] | IC50 [4] [µM] | IC50 [5] [µM] | IC50 [6, 10] [µM] | IC50 [7] [nM] | IC50 [8] [nM] | IC50 [9] [nM] | IC50 [6, 11] [µM] | IC50 [3] [µM] | IC50 ([6]; read-out: cell proliferation inhibition IC50 (μM) A549) [µM]
C=CC(=O)Nc1cc(Nc2nccc(-c3cn(C)c4ccccc34)n2)c(OC)cc1N(C)CCN(C)C [Osimertinib, reference compound] | – | 1 to 2 | – | – | – | – | – | – | – | 1 to 2 | 3.01
